Assay results from patent US20250257034A1, “INDOLE DERIVATIVES AS SEROTONERGIC AGENTS USEFUL FOR THE TREATMENT OF DISORDERS RELATED THERETO” (priority 2023, published 2025).

Columns and labels:
5-HT2B receptor = 5-HT2B receptor (Homo sapiens, UniProt P41595); experiment: h-5HT2B positive allosteric modulator (PAM) assay in HEK293 cells; format: cell-based; set-up: expressed in transfected cells; host or cells: HEK293, stably transfected; settings: for Emax (% of serotonin): PAM mode
Procedure: Compound potency (EC50) and efficacy (Max response) against the human 5-HT2B receptor in stably transfected HEK293 cells was determined in a GPC R cell-based assay.
(§1) For Positive Allosteric Modulator determination, cells were pre-incubated with sample followed by EC20 addition. Intermediate dilution of sample stocks was performed to generate 5×sample in assay buffer. 5 μL of 5×sample was added to cells and incubated at 37° C. for 10 minutes. 5 μL of agonist at 6×EC20 concentration was added and cells were incubated at 37° C. for 120 minutes. Final assay vehicle concentration was 1%. The results are expressed as a percent efficacy relative to the maximum response of the control ligand (serotonin) in Table 29.
as §1, with “58.” for “29.”

human 5-HT1A receptor = biological target: T1, human 5-HT1A receptor (Homo sapiens, UniProt P08908); experiment: Human 5HT1A cAMP assay in CHO-K1 cells; format: cell-based; set-up: expressed in transfected cells
T1 sequence (P08908 1-422): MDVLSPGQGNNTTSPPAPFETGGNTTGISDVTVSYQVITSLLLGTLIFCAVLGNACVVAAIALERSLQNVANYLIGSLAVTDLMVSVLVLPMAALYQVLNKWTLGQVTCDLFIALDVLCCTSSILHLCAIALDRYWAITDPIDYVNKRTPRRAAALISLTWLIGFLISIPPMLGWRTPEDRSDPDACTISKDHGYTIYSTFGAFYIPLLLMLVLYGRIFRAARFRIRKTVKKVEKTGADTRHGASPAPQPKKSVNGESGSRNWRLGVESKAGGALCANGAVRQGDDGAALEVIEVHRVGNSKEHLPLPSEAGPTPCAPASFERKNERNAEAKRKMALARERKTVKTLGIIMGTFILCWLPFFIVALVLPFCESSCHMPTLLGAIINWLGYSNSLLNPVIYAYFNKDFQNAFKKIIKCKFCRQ
Procedure: Compound potency (EC50) and efficacy (Max response) against the human 5-HT1A receptor in stably transfected CHO-K1 cells was determined in a GPCR cell-based cAMP assay.
(§2) Cells were seeded in a total volume of 20 μL into white walled, 384-well microplates and incubated at 37° C. overnight before analysis. Prior to testing, cell plating media was exchanged with 10 μL of Assay buffer (HBSS+10 mM HE P E S). Briefly, intermediate dilution of sample stocks was performed to generate 4×sample in assay buffer. 5 μL of 4×sample+5 μL of 4×forskolin was added to cells and incubated at 37° C. for 30 minutes. Final assay vehicle concentration was 1%. The results are expressed as a percent efficacy relative to the maximum response of the control ligand (serotonin) in Table 27.
as §2, with “HEPES).” for “HE P E S).”, “4×sample +5” for “4×sample+5”, “56.” for “27.”

[1] = relative to maximum response of serotonin (Table 29)
[2] = relative to maximum response of serotonin (Table 27)
[3] = relative to maximum response of serotonin (Table 56)

Sequence of 5-HT2B receptor (P41595 whole entry): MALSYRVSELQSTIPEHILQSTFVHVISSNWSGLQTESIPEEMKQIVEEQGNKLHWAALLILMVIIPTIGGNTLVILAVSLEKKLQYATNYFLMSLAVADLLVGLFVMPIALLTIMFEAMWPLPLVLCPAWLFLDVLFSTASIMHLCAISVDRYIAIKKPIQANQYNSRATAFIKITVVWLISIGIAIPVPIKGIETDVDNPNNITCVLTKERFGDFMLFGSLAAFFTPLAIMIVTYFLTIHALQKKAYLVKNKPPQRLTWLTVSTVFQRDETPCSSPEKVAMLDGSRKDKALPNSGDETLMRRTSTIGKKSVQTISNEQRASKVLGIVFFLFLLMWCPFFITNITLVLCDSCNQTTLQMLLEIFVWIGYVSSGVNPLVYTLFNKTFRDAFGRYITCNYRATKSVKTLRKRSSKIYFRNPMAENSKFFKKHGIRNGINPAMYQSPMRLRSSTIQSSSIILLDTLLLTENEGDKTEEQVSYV

| SMILES | EC50 (5-HT2B receptor) [µM] | Emax (% of serotonin) (5-HT2B receptor; [1]) | EC50 (human 5-HT1A receptor) [nM] | Emax (% of serotonin) (human 5-HT1A receptor; [2]) | Emax (% of serotonin) (human 5-HT1A receptor; [3]) | Emax (% of serotonin) (5-HT2B receptor; HEK293 cells, relative to max response of serotonin) |
| --- | --- | --- | --- | --- | --- | --- |
| [2H]C([2H])([2H])N(CCc1c[nH]c2ccc(SC)cc12)C([2H])([2H])[2H] [Compound I-1, N,N-Bis(methyl-d3)-2-(5-(methylthio)-1H-indol-3-yl)ethan-1-amine] | > 10 | 0 % of serotonin | 11.1 | 96.18 % of serotonin |  |  |
| CN(C)CCc1c[nH]c2ccccc12 [DMT] |  |  |  | 87.1 % of serotonin | 87.1 % of serotonin |  |
| CCN(C)CCc1c[nH]c2ccc(SC)cc12 [Compound I-13, N-Ethyl-N-methyl-2-(5-(methylthio)-1H-indol-3-yl)ethan-1-amine] | > 10 | 0 % of serotonin | 9.06 | 100.52 % of serotonin |  |  |
| COc1ccc2[nH]cc(CCN3CC[C@H](OC(F)F)C3)c2c1 [(S) I-67, (S)-3-(2-(3-(Difluoromethoxy)pyrrolidin-1-yl)ethyl)-5-methoxy-1H-indole] | > 10 |  | 11.6 |  | 98.47 % of serotonin | 0 % of serotonin |
